Reference: ChEMBL document CHEMBL3627608, “Crystal structures of human RIP2 kinase catalytic domain complexed with ATP-competitive inhibitors: Foundations for understanding inhibitor selectivity” (Bioorg Med Chem, 2015)
pIC50: −log10 of the molar value.

What was measured:
[1] = biological target: Serine/threonine-protein kinase MRCK alpha (Homo sapiens) (UniProt Q5VT25); experiment: Inhibition of MRCKalpha (unknown origin) at 10 uM after 120 mins P33 radiolabeled kinase activity assay
[2] = biological target: Serine/threonine-protein kinase PAK 5 (Homo sapiens) (UniProt Q9P286); experiment: Inhibition of PAK5 (unknown origin) at 10 uM after 120 mins P33 radiolabeled kinase activity assay
[3] = biological target: Fibroblast growth factor receptor 2 (Homo sapiens) (UniProt P21802); experiment: Inhibition of FGFR2 (unknown origin) at 10 uM after 120 mins P33 radiolabeled kinase activity assay
[4] = biological target: Phosphorylase b kinase gamma catalytic chain, skeletal muscle/heart isoform (Homo sapiens) (UniProt Q16816); experiment: Inhibition of PHKgamma1 (unknown origin) at 10 uM after 120 mins P33 radiolabeled kinase activity assay
[5] = biological target: Receptor-interacting serine/threonine-protein kinase 2 (Homo sapiens, UniProt O43353); experiment: Inhibition of full-length FLAG-6His-TEV tagged human RIP2 expressed in Sf9 cells by fluorescent polarization assay
[6] = biological target: Mitogen-activated protein kinase 3 (Homo sapiens) (UniProt P27361); experiment: Inhibition of ERK1 (unknown origin) at 10 uM after 120 mins P33 radiolabeled kinase activity assay
[7] = biological target: T1, Rhodopsin kinase GRK7 (Homo sapiens) (UniProt Q8WTQ7); experiment: Inhibition of GRK7 (unknown origin) at 10 uM after 120 mins P33 radiolabeled kinase activity assay
T1 sequence (whole entry): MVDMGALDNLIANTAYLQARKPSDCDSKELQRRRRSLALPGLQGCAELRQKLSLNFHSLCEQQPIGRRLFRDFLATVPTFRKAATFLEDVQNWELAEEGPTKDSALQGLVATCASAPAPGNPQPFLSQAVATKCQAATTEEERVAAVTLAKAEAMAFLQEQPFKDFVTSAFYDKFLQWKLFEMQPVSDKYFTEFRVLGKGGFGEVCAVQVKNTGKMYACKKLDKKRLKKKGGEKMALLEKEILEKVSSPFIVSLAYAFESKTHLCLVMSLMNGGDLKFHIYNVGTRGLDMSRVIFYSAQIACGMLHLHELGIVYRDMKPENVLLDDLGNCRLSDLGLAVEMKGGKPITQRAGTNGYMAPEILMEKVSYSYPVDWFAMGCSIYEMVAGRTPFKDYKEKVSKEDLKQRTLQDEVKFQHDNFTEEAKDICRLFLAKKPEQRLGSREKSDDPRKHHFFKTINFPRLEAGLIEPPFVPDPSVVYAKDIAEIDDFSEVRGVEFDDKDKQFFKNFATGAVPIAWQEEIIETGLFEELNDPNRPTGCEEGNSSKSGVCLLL

[8] = biological target: Mitogen-activated protein kinase kinase kinase 12 (Homo sapiens) (UniProt Q12852); experiment: Inhibition of DLK (unknown origin) at 10 uM after 120 mins P33 radiolabeled kinase activity assay
[9] = biological target: T2, Ephrin type-A receptor 6 (Homo sapiens) (UniProt Q9UF33); experiment: Inhibition of EPHA6 (unknown origin) at 10 uM after 120 mins P33 radiolabeled kinase activity assay
T2 sequence (whole entry): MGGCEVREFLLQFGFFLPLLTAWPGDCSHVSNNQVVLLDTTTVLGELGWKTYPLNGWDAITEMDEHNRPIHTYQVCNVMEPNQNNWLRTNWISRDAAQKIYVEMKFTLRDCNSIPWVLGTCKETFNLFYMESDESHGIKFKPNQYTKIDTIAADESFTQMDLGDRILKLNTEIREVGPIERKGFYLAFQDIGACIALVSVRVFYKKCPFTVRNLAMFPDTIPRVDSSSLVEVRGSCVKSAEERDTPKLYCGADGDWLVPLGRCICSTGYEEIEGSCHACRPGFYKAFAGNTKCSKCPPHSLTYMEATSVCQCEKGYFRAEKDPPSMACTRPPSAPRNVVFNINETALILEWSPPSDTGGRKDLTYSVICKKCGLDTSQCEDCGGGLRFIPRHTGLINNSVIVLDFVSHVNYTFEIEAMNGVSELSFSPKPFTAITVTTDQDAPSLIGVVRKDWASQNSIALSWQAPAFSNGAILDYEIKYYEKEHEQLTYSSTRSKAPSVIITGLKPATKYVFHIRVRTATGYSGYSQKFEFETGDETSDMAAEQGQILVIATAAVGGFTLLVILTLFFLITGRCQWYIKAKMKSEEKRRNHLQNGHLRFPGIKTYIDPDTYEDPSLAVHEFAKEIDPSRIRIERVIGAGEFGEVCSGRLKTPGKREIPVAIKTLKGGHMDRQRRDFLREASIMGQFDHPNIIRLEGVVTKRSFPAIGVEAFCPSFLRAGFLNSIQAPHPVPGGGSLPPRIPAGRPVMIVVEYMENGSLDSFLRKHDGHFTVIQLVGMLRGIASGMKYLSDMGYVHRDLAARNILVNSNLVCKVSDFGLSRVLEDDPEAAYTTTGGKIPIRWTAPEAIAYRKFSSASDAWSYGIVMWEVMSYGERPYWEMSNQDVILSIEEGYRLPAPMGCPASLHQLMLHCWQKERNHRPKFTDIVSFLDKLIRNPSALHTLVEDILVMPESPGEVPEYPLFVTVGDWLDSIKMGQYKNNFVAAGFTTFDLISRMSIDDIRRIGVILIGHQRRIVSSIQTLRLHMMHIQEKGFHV

[10] = biological target: PAS domain-containing serine/threonine-protein kinase (Homo sapiens) (UniProt Q96RG2); experiment: Inhibition of PASK (unknown origin) at 10 uM after 120 mins P33 radiolabeled kinase activity assay
[11] = biological target: T3, Testis-specific serine/threonine-protein kinase 3 (Homo sapiens) (UniProt Q96PN8); experiment: Inhibition of TSSK3 (unknown origin) at 10 uM after 120 mins P33 radiolabeled kinase activity assay
T3 sequence (whole entry): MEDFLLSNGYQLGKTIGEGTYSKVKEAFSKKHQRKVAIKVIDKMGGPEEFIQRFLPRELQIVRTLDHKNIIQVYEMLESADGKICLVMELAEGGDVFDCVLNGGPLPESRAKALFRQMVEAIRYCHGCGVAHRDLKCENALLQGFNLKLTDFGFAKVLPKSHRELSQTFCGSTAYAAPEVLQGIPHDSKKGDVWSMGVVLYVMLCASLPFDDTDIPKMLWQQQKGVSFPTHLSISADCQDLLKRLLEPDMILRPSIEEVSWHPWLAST

[12] = biological target: Proto-oncogene tyrosine-protein kinase ROS (Homo sapiens) (UniProt P08922); experiment: Inhibition of ROS (unknown origin) at 10 uM after 120 mins P33 radiolabeled kinase activity assay
[13] = biological target: MAP kinase-activated protein kinase 3 (Homo sapiens) (UniProt Q16644); experiment: Inhibition of MAPKAPK3 (unknown origin) at 10 uM after 120 mins P33 radiolabeled kinase activity assay
Homo sapiens = species: Homo sapiens; experiment: Inhibition of PKCbeta2 (unknown origin) at 10 uM after 120 mins P33 radiolabeled kinase activity assay
[14] = biological target: Tyrosine-protein kinase Fgr (Homo sapiens) (UniProt P09769); experiment: Inhibition of FGR (unknown origin) at 10 uM after 120 mins P33 radiolabeled kinase activity assay

Chain of Phosphorylase b kinase gamma catalytic chain, skeletal muscle/heart isoform (Homo sapiens) (Q16816 whole entry, looked up, canonical isoform): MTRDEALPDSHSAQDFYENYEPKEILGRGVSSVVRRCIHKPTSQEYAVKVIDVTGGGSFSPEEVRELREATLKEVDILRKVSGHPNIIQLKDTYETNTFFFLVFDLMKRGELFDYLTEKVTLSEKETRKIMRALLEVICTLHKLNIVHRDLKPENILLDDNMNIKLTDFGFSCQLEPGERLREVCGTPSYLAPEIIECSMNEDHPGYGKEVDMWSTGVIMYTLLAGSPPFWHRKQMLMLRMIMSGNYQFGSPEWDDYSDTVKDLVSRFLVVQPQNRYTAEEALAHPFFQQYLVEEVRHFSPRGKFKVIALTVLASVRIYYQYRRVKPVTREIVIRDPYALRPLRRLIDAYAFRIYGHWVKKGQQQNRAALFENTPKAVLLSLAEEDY
Chain of Fibroblast growth factor receptor 2 (Homo sapiens) (P21802 22-821 limits assumed): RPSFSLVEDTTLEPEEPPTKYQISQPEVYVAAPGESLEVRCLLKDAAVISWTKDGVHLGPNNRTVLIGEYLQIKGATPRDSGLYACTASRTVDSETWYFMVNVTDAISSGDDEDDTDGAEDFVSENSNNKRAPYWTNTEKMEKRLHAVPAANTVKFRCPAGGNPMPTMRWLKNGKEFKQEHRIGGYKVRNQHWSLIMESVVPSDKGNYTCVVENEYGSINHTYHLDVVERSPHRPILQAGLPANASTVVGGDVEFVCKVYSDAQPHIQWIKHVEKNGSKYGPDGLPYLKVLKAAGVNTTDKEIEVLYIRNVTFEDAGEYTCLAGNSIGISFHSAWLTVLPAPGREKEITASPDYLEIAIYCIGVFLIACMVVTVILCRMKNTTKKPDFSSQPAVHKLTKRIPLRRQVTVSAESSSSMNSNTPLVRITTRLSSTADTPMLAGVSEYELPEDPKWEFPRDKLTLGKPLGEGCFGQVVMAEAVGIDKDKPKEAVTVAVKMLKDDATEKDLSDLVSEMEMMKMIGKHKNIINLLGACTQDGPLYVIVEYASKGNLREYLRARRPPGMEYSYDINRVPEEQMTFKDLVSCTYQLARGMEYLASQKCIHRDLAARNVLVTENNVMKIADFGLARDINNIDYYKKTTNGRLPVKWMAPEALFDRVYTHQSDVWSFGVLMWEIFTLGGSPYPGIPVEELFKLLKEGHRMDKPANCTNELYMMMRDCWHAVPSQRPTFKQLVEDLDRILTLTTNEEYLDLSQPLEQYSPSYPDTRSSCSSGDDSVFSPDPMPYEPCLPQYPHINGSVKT
Chain of Mitogen-activated protein kinase kinase kinase 12 (Homo sapiens) (Q12852 whole entry, looked up): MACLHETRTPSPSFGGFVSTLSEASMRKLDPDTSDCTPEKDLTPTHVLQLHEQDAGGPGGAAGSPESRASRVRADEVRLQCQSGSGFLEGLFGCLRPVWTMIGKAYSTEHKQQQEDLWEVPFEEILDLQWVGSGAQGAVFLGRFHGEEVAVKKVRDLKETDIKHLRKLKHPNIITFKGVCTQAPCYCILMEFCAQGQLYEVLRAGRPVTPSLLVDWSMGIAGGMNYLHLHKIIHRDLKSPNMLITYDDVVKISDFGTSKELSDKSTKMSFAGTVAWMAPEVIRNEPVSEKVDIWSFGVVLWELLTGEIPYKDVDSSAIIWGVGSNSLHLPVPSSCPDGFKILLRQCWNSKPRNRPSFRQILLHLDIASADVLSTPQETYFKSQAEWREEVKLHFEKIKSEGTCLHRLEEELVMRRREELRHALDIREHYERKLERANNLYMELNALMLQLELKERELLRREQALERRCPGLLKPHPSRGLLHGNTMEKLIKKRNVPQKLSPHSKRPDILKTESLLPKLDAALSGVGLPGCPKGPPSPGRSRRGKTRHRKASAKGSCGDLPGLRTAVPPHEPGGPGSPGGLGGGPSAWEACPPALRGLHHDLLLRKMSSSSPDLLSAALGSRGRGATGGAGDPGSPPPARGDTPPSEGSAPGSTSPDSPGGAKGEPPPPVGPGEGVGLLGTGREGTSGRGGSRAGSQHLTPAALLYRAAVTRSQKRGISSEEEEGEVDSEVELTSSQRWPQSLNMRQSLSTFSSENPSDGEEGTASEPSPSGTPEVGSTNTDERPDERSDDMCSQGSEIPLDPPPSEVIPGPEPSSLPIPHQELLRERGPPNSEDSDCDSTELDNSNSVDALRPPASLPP
Chain of Proto-oncogene tyrosine-protein kinase ROS (Homo sapiens) (P08922 whole entry): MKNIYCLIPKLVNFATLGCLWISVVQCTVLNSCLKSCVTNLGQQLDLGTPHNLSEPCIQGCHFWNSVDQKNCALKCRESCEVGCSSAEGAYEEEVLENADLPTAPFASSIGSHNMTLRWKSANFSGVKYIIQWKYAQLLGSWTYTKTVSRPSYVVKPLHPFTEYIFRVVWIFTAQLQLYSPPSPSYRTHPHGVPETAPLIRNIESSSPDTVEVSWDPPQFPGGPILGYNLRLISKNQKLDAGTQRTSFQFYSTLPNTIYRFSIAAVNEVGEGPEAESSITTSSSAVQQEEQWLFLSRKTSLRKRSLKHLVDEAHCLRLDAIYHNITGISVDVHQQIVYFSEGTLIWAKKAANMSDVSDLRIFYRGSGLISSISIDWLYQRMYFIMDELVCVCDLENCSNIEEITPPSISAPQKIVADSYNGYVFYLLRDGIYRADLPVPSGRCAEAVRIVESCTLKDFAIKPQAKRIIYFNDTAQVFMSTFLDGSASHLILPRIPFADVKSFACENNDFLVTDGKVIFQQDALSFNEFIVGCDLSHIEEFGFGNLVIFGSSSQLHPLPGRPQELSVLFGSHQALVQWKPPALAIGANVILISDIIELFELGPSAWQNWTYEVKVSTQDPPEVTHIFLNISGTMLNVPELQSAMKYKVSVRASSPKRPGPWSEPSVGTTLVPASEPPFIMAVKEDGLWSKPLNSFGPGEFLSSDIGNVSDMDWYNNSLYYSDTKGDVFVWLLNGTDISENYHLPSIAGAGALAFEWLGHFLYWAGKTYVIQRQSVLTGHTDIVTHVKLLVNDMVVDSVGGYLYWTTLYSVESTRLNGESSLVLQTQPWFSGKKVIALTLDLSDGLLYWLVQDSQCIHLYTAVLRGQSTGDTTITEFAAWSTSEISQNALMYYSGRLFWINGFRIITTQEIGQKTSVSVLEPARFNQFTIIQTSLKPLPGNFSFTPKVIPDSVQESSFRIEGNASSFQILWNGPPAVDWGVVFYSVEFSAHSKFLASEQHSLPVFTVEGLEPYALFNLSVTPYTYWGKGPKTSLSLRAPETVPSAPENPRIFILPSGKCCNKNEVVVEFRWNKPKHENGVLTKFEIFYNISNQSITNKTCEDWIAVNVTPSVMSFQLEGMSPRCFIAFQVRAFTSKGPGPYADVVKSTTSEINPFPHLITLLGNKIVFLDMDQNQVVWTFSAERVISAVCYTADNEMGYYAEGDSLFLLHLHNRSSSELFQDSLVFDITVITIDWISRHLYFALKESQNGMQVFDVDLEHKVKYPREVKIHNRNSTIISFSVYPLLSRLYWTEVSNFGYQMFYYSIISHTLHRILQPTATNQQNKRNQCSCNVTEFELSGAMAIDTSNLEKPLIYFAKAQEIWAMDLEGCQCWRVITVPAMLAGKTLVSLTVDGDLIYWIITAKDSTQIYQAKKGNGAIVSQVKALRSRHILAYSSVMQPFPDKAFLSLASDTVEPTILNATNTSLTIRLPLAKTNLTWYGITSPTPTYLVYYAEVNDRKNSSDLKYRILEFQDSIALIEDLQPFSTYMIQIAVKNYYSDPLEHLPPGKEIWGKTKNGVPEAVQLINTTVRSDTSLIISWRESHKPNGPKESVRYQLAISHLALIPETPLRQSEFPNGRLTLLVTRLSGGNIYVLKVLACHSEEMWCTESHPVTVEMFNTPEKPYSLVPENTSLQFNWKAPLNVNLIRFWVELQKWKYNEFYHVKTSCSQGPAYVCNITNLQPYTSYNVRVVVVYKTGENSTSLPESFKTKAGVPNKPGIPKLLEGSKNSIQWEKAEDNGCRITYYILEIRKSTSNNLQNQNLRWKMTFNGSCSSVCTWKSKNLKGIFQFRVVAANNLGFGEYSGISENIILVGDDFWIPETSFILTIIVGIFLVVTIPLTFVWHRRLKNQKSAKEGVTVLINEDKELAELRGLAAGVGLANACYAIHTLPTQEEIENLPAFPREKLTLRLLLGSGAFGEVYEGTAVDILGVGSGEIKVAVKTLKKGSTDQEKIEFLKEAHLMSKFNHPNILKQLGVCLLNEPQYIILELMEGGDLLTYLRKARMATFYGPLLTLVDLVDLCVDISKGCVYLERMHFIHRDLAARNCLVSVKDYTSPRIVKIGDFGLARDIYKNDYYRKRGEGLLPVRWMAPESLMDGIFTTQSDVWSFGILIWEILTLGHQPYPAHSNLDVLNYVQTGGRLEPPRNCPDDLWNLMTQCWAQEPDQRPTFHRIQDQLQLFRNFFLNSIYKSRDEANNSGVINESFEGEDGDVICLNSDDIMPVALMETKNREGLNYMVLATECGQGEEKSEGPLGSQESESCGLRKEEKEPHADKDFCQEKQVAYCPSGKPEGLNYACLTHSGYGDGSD
Chain of Receptor-interacting serine/threonine-protein kinase 2 (O43353 whole entry): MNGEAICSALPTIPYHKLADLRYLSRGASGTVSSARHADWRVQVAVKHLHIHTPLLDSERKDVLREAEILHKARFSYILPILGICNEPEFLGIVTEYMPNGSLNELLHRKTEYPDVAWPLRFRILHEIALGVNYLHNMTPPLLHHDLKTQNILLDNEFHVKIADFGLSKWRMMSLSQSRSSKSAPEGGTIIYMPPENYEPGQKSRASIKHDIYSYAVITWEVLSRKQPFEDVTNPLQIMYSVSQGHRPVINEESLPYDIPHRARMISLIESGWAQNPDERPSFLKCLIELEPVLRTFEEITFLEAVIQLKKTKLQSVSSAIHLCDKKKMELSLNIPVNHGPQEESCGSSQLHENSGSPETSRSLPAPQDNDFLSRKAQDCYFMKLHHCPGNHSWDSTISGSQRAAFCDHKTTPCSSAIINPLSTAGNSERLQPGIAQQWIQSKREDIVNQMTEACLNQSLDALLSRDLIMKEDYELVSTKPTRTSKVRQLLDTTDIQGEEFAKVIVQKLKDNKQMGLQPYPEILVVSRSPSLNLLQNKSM

Structure (SMILES)	inhibition [1] [%]	inhibition [2] [%]	inhibition [3] [%]	inhibition [4] [%]	pIC50 [5]	inhibition [6] [%]	inhibition [7] [%]	inhibition [8] [%]	inhibition [9] [%]	inhibition [10] [%]	inhibition [11] [%]	inhibition [12] [%]	inhibition [13] [%]	inhibition (Homo sapiens) [%]	inhibition [14] [%]
COCCNC(=O)c1ccc2c(c1)nc(-c1cnc(-c3ccc(Cl)cc3)[nH]1)n2CCOC	8.76	14.8	4.14	10.5	6.30	1.41	2.32	5.39	31.7	-2.42	15	27.9	0.16	31.5	67.5
CS(=O)(=O)c1cccc(Nc2nccc(-c3sc(N4CCOCC4)nc3-c3cccc(NS(=O)(=O)c4c(F)cccc4F)c3)n2)c1	13	17.8	64.4	8.44	8.10	-3.91	25.3	53	95.8	-0.14	10.5	63.8	-3.69	9.1	100
CC(C)(C)c1cc(NC(=O)Nc2ccc(Oc3ccncc3)cc2)no1	30.5	14.3	79.4	55.9	6.49	3.03	2.1	8.04	93.7	10.9	11.2	88.7	-4.91	9.88	90.7
